Laboratory results from paper PMC9232112 (Science Advances, 2022).

Key:
measles virus polymerase = conditions: equivalent measles virus RdRP assay; cited from earlier work
recRSV-mKate = assay: microbe, parasite or virus in culture; format: cell-based; conditions: human respiratory syncytial virus, read-out: EC50, apical RSV shedding

| SMILES | phosphodiester bond formation (measles virus polymerase) | EC50 (recRSV-mKate) [nM] |
| --- | --- | --- |
| Cn1nc(C(F)(F)F)cc1C(=O)Nc1ccc(S(=O)(=O)N2CCCC[C@H]2CCN2CCOCC2)cc1 [ERDRP-0519] | completely blocks all phosphodiesterbond formation |  |
| O=c1nc(NO)ccn1[C@@H]1O[C@H](CO)[C@@H](O)[C@H]1O [NHC, N^4-hydroxycytidine] |  | 50 |
